Columns and labels:
D3R = conditions: cited from earlier work
dogs = conditions: cited from earlier work
rats = conditions: pretreatment, rats chronically treated with oxycodone; cited from earlier work
[1] = tested on: oxycodone self-administration; conditions: cited from earlier work
[2] = hot plate assay; cited from earlier work
5-HT1A receptor = biological target: T1, 5-HT1A receptor (Homo sapiens, UniProt P08908); assay: 5-HT1A [35S]GTPγS binding functional assay
T1 sequence (P08908 1-422): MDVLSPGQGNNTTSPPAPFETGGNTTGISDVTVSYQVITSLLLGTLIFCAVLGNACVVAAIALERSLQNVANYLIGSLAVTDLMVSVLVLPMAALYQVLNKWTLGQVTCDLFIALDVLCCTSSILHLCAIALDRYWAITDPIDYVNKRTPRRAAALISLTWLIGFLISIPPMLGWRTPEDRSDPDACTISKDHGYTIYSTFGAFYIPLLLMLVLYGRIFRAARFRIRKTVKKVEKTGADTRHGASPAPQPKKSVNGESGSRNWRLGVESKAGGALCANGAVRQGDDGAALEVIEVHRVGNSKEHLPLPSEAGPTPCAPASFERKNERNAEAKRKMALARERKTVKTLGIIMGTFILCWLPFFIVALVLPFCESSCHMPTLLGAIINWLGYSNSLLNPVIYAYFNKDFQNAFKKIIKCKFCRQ

Human Dopamine D3R = Human Dopamine D3R (Homo sapiens, UniProt P35462); assay: Stimulation or inhibition of quinpirole-stimulated mitogenesis in CHO cells; type: cell-based; conditions: mitogenesis assay
Chain of Human Dopamine D3R (P35462 whole entry): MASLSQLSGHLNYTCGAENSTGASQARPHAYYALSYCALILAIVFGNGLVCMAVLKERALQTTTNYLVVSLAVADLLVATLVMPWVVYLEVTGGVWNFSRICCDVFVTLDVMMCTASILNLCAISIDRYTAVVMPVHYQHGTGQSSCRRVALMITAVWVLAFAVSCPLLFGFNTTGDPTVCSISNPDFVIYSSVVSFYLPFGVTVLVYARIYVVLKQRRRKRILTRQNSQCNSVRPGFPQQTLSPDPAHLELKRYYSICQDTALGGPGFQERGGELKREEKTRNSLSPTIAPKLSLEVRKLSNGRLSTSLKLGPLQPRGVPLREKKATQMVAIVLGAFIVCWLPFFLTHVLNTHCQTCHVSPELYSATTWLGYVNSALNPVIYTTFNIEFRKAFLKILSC

[3] = Pharmacokinetics in rats after oral administration, plasma and brain; conditions: PO 10 mg/kg
[4] = rats, PO 10 mg/kg; adapted from previously reported data; cited from earlier work

Compound: O=C(NCC[C@@H](O)CN1CCN(c2cccc(Cl)c2Cl)CC1)c1cc2ccccc2[nH]1 [(R)-2]
- D3R functional efficacy (in words) (D3R): antagonist

Compound: Cc1ncoc1-c1nnc(SCCCN2C[C@@H]3C[C@]3(c3ccc(C(F)(F)F)cc3F)C2)n1C [compound 1]
- blood pressure effect when coadministered with cocaine (dogs): produced hypertension

Compound: CCc1cc(Cl)c(OC)c(N2CCN(CC(O)CCNC(=O)c3cc4ccccc4[nH]3)CC2)c1 (centres unmarked) [compound 4]
- naloxone-precipitated conditioned place aversion (rats): dose-dependently reduced
- acquisition and maintenance of oxycodone self-administration [1]: dose-dependently inhibited
- oxycodone extinction response and reinstatement of oxycodone-seeking [1]: inhibited oxycodone extinction response and reinstatement of oxycodone-seeking behaviors
- break-point for oxycodone self-administration ([1]; progressive-ratio schedule of reinforcement): lowering the break-point
- effect on antinociceptive actions of oxycodone [2]: no effect

Compound: CCc1cccc(N2CCN(CC(F)CCNC(=O)c3cc4ccccc4o3)CC2)c1Cl (centres unmarked) [10b, N-(4-(4-(2-Chloro-3-ethylphenyl)piperazin-1-yl)-3-fluorobutyl)benzofuran-2-carboxamide]
- 5-HT1A functional efficacy (in words) (5-HT1A receptor): low potency partial agonist

Compound: O=C(NCC[C@H](O)CN1CCN(c2cccc(Cl)c2Cl)CC1)c1cc2ccccc2[nH]1 [(S)-2]
- D3R functional efficacy (in words) (D3R): weak partial agonist

Compound: CCc1cc(Cl)c(OC)c(N2CCN(C[C@H](O)CCNC(=O)c3cc4ccccc4[nH]3)CC2)c1 [(R)-4, (R)-N-(4-(4-(3-Chloro-5-ethyl-2-methoxyphenyl)piperazin-1-yl)3-hydroxybutyl)-1H-indole-2-carboxamide]
- D3R functional efficacy (in words) (Human Dopamine D3R): D3R antagonists

Compound: CCc1cccc(N2CCN(C[C@@H](O)CCNC(=O)c3cc4ccccc4[nH]3)CC2)c1Cl [(S)-5, (S)-N-(4-(4-(2-Chloro-3-ethylphenyl)piperazin-1-yl)-3-hydroxybutyl)-1H-indole-2-carboxamide]
- brain Cmax [3]: 3666.7 ± 312.7 pmol/g

Compound: CCc1cccc(N2CCN(C[C@H](O)CCNC(=O)c3cc4ccccc4[nH]3)CC2)c1Cl [(R)-5, (R)-N-(4-(4-(2-Chloro-3-ethylphenyl)piperazin-1-yl)-3-hydroxybutyl)-1H-indole-2-carboxamide]
- plasma exposure (AUC0-t) [4]: 1.985 ± 0.2786 µM·h

Compound: CCc1cccc(N2CCN(CC(O)CCNC(=O)c3cc4ccccc4[nH]3)CC2)c1Cl (centres unmarked) [compound 5]
- D3R functional efficacy (in words) (D3R): relatively low efficacy partial agonist

Compound: CCc1cc(Cl)c(OC)c(N2CCN(C[C@@H](O)CCNC(=O)c3cc4ccccc4[nH]3)CC2)c1 [(S)-4, (S)-N-(4-(4-(3-Chloro-5-ethyl-2-methoxyphenyl)piperazin-1-yl)3-hydroxybutyl)-1H-indole-2-carboxamide]
- D3R functional efficacy (in words) (Human Dopamine D3R): D3R antagonists

Source: article PMC8830247 (Journal of medicinal chemistry, 2019)
